Source: US20180201609A1 (AURIGENE DISCOVERY TECHNOLOGIES LIMITED, priority 2015, published 2018)
Where a name gives a salt, the structure may show the parent alone.

Molecular target: T1, IRAK-4 enzyme (Homo sapiens, UniProt Q9NWZ3)
T1 construct: purchased Millipore, USA
T1 sequence (Q9NWZ3 1-460): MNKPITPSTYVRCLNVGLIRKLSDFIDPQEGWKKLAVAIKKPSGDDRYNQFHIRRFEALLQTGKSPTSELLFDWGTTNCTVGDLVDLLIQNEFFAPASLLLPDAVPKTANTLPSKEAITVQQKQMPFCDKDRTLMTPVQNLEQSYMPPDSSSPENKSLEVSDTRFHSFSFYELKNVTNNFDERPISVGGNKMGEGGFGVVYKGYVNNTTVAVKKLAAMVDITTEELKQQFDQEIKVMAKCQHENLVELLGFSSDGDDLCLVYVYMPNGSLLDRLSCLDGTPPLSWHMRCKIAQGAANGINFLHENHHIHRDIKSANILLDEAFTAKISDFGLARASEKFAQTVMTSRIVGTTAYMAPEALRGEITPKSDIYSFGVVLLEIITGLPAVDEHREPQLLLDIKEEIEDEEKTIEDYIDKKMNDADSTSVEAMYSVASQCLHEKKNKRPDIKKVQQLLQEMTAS
Assay: IRAK-4 Biochemical Assay (TR-FRET)
Details: recombinant IRAK-4 kinase, 20 μM ATP
Protocol: Compounds were tested for their potential to inhibit IRAK-4 enzyme in a TR-FRET assay using recombinant IRAK-4 kinase from Millipore, USA. The assay buffer was 50 mM Tris-HCl pH 7.5, 20 mM MgCl2, 1 mM EGTA, 2 mM DTT, 3 mM MnCl2 and 0.01% Tween 20.5 ng of IRAK-4 kinase was used for the assay. After pre-incubation of enzyme with test compound for 30 minutes at room temperature, a substrate mixture containing 100 nM Biotin Histone H3 (Millipore, USA) and 20 μM ATP (Sigma, USA) was added and the reaction was incubated for 30 min. Post incubation, the reaction was stopped by the addition of stop mix containing 40 mM EDTA, 1 nM of Europium-Anti-Phospho-Histone H3 (Ser10) antibody (Perkin Elmer, USA) and 20 nM SureLight Allophycocyanin-Streptavidin (Perkin Elmer, USA). The fluorescence emission at 615 nm and 665 nm were measured at an excitation of 340 nm and the percent inhibition was estimated from the ratio of the fluorescence intensities [(F665/F615)×10000].
The compounds of the present invention were screened in the above mentioned assay and the percent inhibition data is summarized in the Table 1.

Structure (SMILES)	inhibition at 0.1 µM (0.1 μM compound)	inhibition at 1 µM (1 μM compound)	% inhibition of IRAK-4 activity @0.1 μM (0.1 μM compound)	% inhibition of IRAK-4 activity @1 μM (1 μM compound)
Cc1cc(-c2nc(C(=O)Nc3cc4cnn(C)c4nc3N3CC[C@H](O)C3)co2)ccn1 [Example 23, (S)—N-(6-(3-hydroxypyrrolidin-1-yl)-1-methyl-1H-pyrazolo[3,4-b]pyridin-5-yl)-2-(2-methylpyridin-4-yl)oxazole-4-carboxamide]		33%		
Cc1nn(C)c2cc(N3CCC(CO)CC3)c(NC(=O)c3cccc(-c4ccc(N)nc4)n3)cc12 [Example 37, 6′-amino-N-(6-(4-(hydroxymethyl)piperidin-1-yl)-1,3-dimethyl-1H-indazol-5-yl)-[2,3′-bipyridine]-6-carboxamide hydrochloride]	14%	75%		
COCCn1nc(C)c2cc(NC(=O)c3coc(-c4ccnc(N)c4)n3)c(N3CCC(CO)CC3)nc21 [Example 30, 2-(2-aminopyridin-4-yl)-N-(6-(4-(hydroxymethyl)piperidin-1-yl)-1-(2-methoxyethyl)-3-methyl-1H-pyrazolo[3,4-b]pyridin-5-yl)oxazole-4-carboxamide]	86%	99%		
Cn1ncc2cc(NC(=O)c3cccc(N4CCC(O)C4)n3)c(N3CCCCC3)cc21 (centres unmarked) [Example 33, 6-(3-hydroxypyrrolidin-1-yl)-N-(1-methy-6-(piperidin-1-yl)-1H-indazol-5-yl)picolinamide]	43%	81%		
COCCn1ncc2cc(NC(=O)c3coc(-c4ccnc(C)c4)n3)c(N3CCC(O)CC3)nc21 [Example 25, N-(6-(4-hydroxypiperidin-1-yl)-1-(2-methoxyethyl)-1H-pyrazolo[3,4-b]pyridin-5-yl)-2-(2-methylpyridin-4-yl)oxazole-4-carboxamide]	67%	97%		
O=C(Nc1cc2cnn(C3CCNCC3)c2cc1C1CC1)c1cccc(N2CCC(O)C2)n1 (centres unmarked) [Example 32, N-(6-cyclopropyl-1-(piperidin-4-yl)-1H-indazol-5-yl)-6-(3-hydroxypyrrolidin-1-yl)picolinamide hydrochloride]	19%	80%		
Cc1cc(-c2nc(C(=O)Nc3cc4c(C)nn(C)c4nc3N3CCC(CO)CC3)co2)ccn1 [Example 28, N-(6-(4-(hydroxymethyl)piperidin-1-yl)-1,3-dimethyl-1H-pyrazolo[3,4-b]pyridin-5-yl)-2-(2-methylpyridin-4-yl)oxazole-4-carboxamide]	89%	97%		
CN1CCN(CCn2ncc3cc(NC(=O)c4coc(-c5ccnc(N)c5)n4)c(N4CCC(O)CC4)cc32)CC1 [Example 31, 2-(2-aminopyridin-4-yl)-N-(6-(4-hydroxypiperidin-1-yl)-1-(2-(4-methylpiperazin-1-yl)ethyl)-1H-indazol-5-yl)oxazole-4-carboxamide hydrochloride]	99%	99%		
Cc1cc(-c2nc(C(=O)Nc3cc4cn(C)nc4nc3N3CC[C@H](O)C3)co2)ccn1 [Example 21, (S)—N-(6-(3-hydroxypyrrolidin-1-yl)-2-methyl-2H-pyrazolo[3,4-b]pyridin-5-yl)-2-(2-methylpyridin-4-yl)oxazole-4-carboxamide]		89%		
Cc1nn(C)c2cc(N3CCC(CO)CC3)c(NC(=O)c3coc(-c4cc(F)c(=O)n(C)c4)n3)cc12 [Example 11, 2-(5-fluoro-1-methyl-6-oxo-1,6-dihydropyridin-3-yl)-N-(6-(4-(hydroxymethyl)piperidin-1-yl)-1,3-dimethyl-1H-indazol-5-yl)oxazole-4-carboxamide hydrochloride]	26%	59%		
COCCCn1ncc2cc(NC(=O)c3coc(-c4ccnc(C)c4)n3)c(N3CCC(O)CC3)cc21 [Example 4, N-(6-(4-hydroxypiperidin-1-yl)-1-(3-methoxypropyl)-1H-indazol-5-yl)-2-(2-methylpyridin-4-yl)oxazole-4-carboxamide hydrochloride]	95%	99%		
C=CCOCC1CCN(c2cc3c(cc2NC(=O)c2coc(-c4cccc(N)n4)n2)c(C)nn3C)CC1 [Example 34]	25%	46%		
Cn1ncc2cc(NC(=O)c3coc(-c4cccnc4N)n3)c(N3CCC(O)CC3)cc21 [Example 1, 2-(2-aminopyridin-3-yl)-N-(6-(4-hydroxypiperidin-1-yl)-1-methyl-1H-indazol-5-yl)oxazole-4-carboxamide hydrochloride]	96%	97%		

Continued, values first:

inhibition at 0.1 µM (0.1 μM compound)	inhibition at 1 µM (1 μM compound)	% inhibition of IRAK-4 activity @0.1 μM (0.1 μM compound)	% inhibition of IRAK-4 activity @1 μM (1 μM compound)	Structure (SMILES)
67%	95%			Cn1cc2cc(NC(=O)c3cc(N4CCC(O)C4)ccn3)c(C3CC3)cc2n1 (centres unmarked) [Example 71, N-(6-cyclopropyl-2-methyl-2H-indazol-5-yl)-4-(3-hydroxypyrrolidin-1-yl)picolinamide hydrochloride]
95%	96%			O=C(Nc1cc2cn(C3CCNCC3)nc2cc1C1CC1)c1cccc(N2CCC(O)C2)n1 (centres unmarked) [Example 54, N-(6-cyclopropyl-2-(piperidin-4-yl)-2H-indazol-5-yl)-6-(3-hydroxypyrrolidin-1-yl)picolinamide hydrochloride]
91%	98%			Cn1cc2cc(NC(=O)c3cncc(N4CCC(O)C4)n3)c(N3CCCCC3)cc2n1 (centres unmarked) [Example 65, 6-(3-hydroxypyrrolidin-1-yl)-N-(2-methyl-6-(piperidin-1-yl)-2H-indazol-5-yl)pyrazine-2-carboxamide]
86%	95%			Cn1cc2cc(NC(=O)c3cccc(-c4ccnc(N)c4)n3)c(N3CCOCC3)cc2n1 [Example 50, 2′-amino-N-(2-methyl-6-morpholino-2H-indazol-5-yl)-[2,4′-bipyridine]-6-carboxamide hydrochloride]
97%	96%			Cn1cc2cc(NC(=O)c3cccc(-c4ccnc(N)c4)n3)c(N3CCCCC3)cc2n1 [Example 43, 2′-amino-N-(2-methyl-6-(piperidin-1-yl)-2H-indazol-5-yl)-[2,4′-bipyridine]-6-carboxamide hydrochloride]
9%	21%			COc1ccc(C(=O)Nc2cc3cn(C)nc3cc2N2CCCCC2)nc1N1CCC(O)C1 (centres unmarked) [Example 62, 6-(3-hydroxypyrrolidin-1-yl)-5-methoxy-N-(2-methyl-6-(piperidin-1-yl)-2H-indazol-5-yl)picolinamide]
		82%	92%	Cl.Cn1cc2cc(NC(=O)c3cncc(N4CCC(O)C4)n3)c(N3CCCCC3)cc2n1 (centres unmarked) [Example 67, 6-(3-hydroxypyrrolidin-1-yl)-N-(2-methyl-6-(piperidin-1-yl)-2H-indazol-5-yl)pyrazine-2-carboxamide hydrochloride]
96%	97%			Cn1cc2cc(NC(=O)c3coc(-c4cccc(N)n4)n3)c(N3CCCCC3)cc2n1 [Example 41, 2-(6-aminopyridin-2-yl)-N-(2-methyl-6-(piperidin-1-yl)-2H-indazol-5-yl)oxazole-4-carboxamide]
92%	95%			O=C(Nc1cc2cn(CCN3CCOCC3)nc2cc1C1CC1)c1cccc(N2CCC(O)C2)n1 (centres unmarked) [Example 55, N-(6-cyclopropyl-2-(2-morpholinoethyl)-2H-indazol-5-yl)-6-(3-hydroxypyrrolidin-1-yl)picolinamide]
4%	72%			Cc1nn(C)c2cc3c(cc12)NC(=O)c1coc(n1)-c1ccnc(c1)NCCCOCC1CCN3CC1 [Example 39, (Z)-51,53-dimethyl-51H-8-oxa-4,12-diaza-2(2,4)-oxazola-5(5,6)-indazola-1(4,2)-pyridina-6(1,4)-piperidinacyclododecaphan-3-one]
91%	96%			Cn1cc2cc(NC(=O)c3cccc(N4CC[C@@H](OC(=O)CN)C4)n3)c(N3CCCCC3)cc2n1 [Example 58, (R)-1-(6-((2-methyl-6-(piperidin-1-yl)-2H-indazol-5-yl)carbamoyl)pyridin-2-yl)pyrrolidin-3-yl glycinate 2,2,2-trifluoroacetate]
96%	98%			Cn1cc2cc(NC(=O)c3cccc(-c4ccc(N)nc4)n3)c(C3CC3)cc2n1 [Example 48, 6′-amino-N-(6-cyclopropyl-2-methyl-2H-indazol-5-yl)-[2,3′-bipyridine]-6-carboxamide]
75%	96%			Cn1cc2cc(NC(=O)c3cccc(N4CCC(O)C4)n3)c(N3CCOCC3)cc2n1 (centres unmarked) [Example 68, 6-(3-hydroxypyrrolidin-1-yl)-N-(2-methyl-6-morpholino-2H-indazol-5-yl)picolinamide]
